Assay results taken from ChEMBL document CHEMBL3638542, “Imidazo[1,2-a]pyridine derivatives: preparation and pharmaceutical applications” (2014).

Each compound was assayed against Histone deacetylase 1 (Homo sapiens, UniProt Q13547) (assay: BIOMOL Fluorescent-Based Assay: The assay has been carried out in 96 well format and the BIOMOL fluorescent-based HDAC activity assay has been applied. The reaction composed of assay buffer, containing 25 mM Tris pH 7.5, 137 mM NaCl, 2.7 mM KCl, 1 mM MgCl2, 1 mg/ml BSA, tested compounds, an appropriate concentration of HDAC1 enzyme, 500 uM Flur de lys generic substrate for HDAC1 enzyme and subsequently was incubated at room temperature for 2 h. Flur de lys Developer was added and the reaction was incubated for 10 min. Briefly, deacetylation of the substrate sensitizes it to the developer, which then generates a fluorophore. The fluorophore is excited with 360 nm light and the emitted light (460 nm) is detected on a fluorometric plate reader (Tecan Ultra Microplate detection system, Tecan Group Ltd.).).
Chain of Histone deacetylase 1 (Q13547 whole entry): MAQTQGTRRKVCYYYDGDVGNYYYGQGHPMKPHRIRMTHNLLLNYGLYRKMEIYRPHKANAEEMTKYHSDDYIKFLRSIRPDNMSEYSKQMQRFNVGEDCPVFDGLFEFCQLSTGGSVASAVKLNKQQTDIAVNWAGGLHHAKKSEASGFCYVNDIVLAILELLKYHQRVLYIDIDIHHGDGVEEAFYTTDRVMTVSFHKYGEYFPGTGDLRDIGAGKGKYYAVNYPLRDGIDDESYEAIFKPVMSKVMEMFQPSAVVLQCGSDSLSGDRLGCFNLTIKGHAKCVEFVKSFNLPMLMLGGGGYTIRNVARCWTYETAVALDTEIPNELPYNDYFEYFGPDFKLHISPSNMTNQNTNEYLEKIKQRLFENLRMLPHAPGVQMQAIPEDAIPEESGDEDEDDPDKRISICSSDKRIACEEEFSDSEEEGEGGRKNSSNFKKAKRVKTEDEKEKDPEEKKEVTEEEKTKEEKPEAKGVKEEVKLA

SMILES	IC50 [µM]
CCCCc1nc2cc(/C=C/C(=O)NO)ccn2c1CN(CC)CC(C)CCC (centres undefined)	0.06
COCCNc1c(CCC(=O)O)nc2ccc(/C=C/C(=O)NO)cn12	0.32
CC(C)(C)Nc1c(C(=O)O)nc2ccc(/C=C/C(=O)NO)cn12	> 10
CCCCCCc1nc2cc(/C=C/C(=O)NO)ccn2c1NCCC(=O)N(C)CC#N	> 10
